Assay results reported in ChEMBL document CHEMBL1201862, “PubChem BioAssay data set” (2004).
Active and inactive are the calls of the source.

Key:
[1] = cytotoxicity in HEK-293T cells, dose response, cytotoxicity control for TCR NF-kB inhibitor project, luminescence, T-cell screen hits (AID 489026); format: functional, cell-based;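 also: cells exposed to compound about 14 hours before the viability readout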
[2] = test system: H9c2; assay: cells; format: functional, cell-based; conditions: Rattus norvegicus, H9c2, Myocardium;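 also: confirmatory concentration-response retest of ultra-high-throughput screening hits for modulation of myocardial damage; cell death induced by hydrogen peroxide oxidative stress; compound pretreatment for 60 min then peroxide exposure for 2 h; potency is for protecting the cells against peroxide damage rather than for killing them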
[3] = (§1) Counterscreen for antagonists of the orexin 1 receptor (OX1R; HCRTR1): Fluorescence-based cell-based high throughput dose response assay to identify antagonists of the parental CHO cell line. [Related pubchem assays (depositor defined):AID434989, AID435008, AID463079, AID485270, AID492963, AID492964, AID492965, AID493232, AID504699, AID504701]; format: functional
[4] = test system: CHO-K1; assay: as §1, with “Homogeneous time resolved fluorescence (HTRF)-based” for “Fluorescence-based”, “cell-based” for “cell-based high throughput”, “CHO-K1” for “CHO”; format: functional; conditions: Cricetulus griseus;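 also: potency for inhibition of ATP-stimulated IP1 production as antagonists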
[5] = target: T1, Orexin/Hypocretin receptor type 1 (Homo sapiens, UniProt O43613); assay: (§2) Fluorescence-based cell-based high throughput dose response assay for antagonists of the orexin 1 receptor (OX1R; HCRTR1). [Related pubchem assays (depositor defined):AID434989, AID435008, AID463079, AID485270, AID492963, AID492964, AID492965, AID493232, AID504717, AID504718]; format: functional
T1 sequence (O43613 whole entry): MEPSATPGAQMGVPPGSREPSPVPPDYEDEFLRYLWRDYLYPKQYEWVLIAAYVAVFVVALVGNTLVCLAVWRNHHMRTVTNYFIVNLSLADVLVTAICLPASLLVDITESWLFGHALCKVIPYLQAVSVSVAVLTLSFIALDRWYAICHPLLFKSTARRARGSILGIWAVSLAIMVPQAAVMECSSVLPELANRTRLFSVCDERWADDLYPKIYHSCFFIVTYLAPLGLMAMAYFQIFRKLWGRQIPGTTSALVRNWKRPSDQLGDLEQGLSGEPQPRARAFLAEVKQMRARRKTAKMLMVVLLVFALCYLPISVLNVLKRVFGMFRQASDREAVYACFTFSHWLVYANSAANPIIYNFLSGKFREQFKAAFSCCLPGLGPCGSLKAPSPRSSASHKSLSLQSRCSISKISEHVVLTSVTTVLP

[6] = target: T1, Orexin/Hypocretin receptor type 1; assay: as §2, with “Homogeneous Time Resolved Fluorescence (HTRF)-based” for “Fluorescence-based”; format: functional
[7] = target: Eukaryotic translation initiation factor 4E (Mus musculus, UniProt P63073); assay: eIF4E–eIF4G protein interaction inhibitors, dose response, biochemical, TR-FRET (AID 855); format: functional;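 also: potency for disrupting eIF4E binding to eIF4GI seen as loss of FRET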
Chain of Eukaryotic translation initiation factor 4E (P63073 whole entry): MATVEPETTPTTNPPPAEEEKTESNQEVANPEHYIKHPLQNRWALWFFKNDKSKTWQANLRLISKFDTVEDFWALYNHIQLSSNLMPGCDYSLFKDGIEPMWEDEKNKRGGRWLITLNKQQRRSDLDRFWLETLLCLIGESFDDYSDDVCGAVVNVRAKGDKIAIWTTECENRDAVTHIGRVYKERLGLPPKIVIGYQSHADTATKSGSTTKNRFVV

[8] = target: T2, Glutathione-S-transferase (Schistosoma japonicum, UniProt Q26513); assay: biotin-GST/anti-GST TR-FRET signal inhibitors, dose response, artefact control for Vif-APOBEC3G degradation inhibitor project, biochemical (AID 1117362); format: functional
T2 sequence (Q26513 whole entry): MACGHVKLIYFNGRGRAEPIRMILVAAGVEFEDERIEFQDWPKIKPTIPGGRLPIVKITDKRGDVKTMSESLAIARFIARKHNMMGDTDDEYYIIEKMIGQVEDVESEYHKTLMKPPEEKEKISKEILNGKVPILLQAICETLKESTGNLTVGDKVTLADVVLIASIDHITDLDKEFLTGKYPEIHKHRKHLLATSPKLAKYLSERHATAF

[9] = inhibitors of PGC1a acetylation in cells, dose response, cell-based, cherry-picked samples (AID 720514); format: functional;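 also: potency may reflect raised or lowered acetylation signal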
[10] = target: T3, Microphthalmia-associated transcription factor (Homo sapiens, UniProt O75030); assay: TRPM1 promoter luciferase signal decrease, dose response, MITF inhibitor project, cell-based, SK-MEL-5, cherry-picked, set 3 (AID 493073); format: functional
T3 sequence (O75030 whole entry): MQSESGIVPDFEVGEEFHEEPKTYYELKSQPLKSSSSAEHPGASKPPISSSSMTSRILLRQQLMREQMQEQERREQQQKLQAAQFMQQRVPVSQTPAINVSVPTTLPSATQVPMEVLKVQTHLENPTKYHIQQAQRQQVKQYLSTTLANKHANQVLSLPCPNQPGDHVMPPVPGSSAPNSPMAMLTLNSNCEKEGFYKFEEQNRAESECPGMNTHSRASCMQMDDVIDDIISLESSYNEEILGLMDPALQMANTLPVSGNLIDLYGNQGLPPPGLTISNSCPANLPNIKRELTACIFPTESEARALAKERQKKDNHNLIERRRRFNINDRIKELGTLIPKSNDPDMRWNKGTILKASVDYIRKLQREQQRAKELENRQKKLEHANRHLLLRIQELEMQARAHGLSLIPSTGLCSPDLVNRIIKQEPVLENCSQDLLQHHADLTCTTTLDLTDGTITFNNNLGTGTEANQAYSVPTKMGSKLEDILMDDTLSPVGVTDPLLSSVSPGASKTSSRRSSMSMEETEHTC

[11] = test system: A-375; assay: MITF: Counter assay: A375 proliferation Measured in Cell-Based System Using Plate Reader - 2084-03_Inhibitor_Dose_DryPowder_Activity. [Related pubchem assays (depositor defined):AID488944]; format: functional; conditions: Homo sapiens
[12] = target: Nonstructural protein 1 (Influenza A virus, UniProt Q194T2); format: functional, Influenza A virus (A/California/07/2009(H1N1))
Chain of Nonstructural protein 1 (Q194T2 whole entry): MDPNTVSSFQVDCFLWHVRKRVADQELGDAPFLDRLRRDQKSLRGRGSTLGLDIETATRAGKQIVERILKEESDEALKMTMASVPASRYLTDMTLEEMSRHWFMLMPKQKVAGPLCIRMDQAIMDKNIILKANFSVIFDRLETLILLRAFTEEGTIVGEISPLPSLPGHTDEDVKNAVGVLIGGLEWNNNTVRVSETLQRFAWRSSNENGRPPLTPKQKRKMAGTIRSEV

[13] = target: Induced myeloid leukemia cell differentiation protein Mcl-1 (Homo sapiens, UniProt Q07820); format: functional
Chain of Induced myeloid leukemia cell differentiation protein Mcl-1 (Q07820 whole entry): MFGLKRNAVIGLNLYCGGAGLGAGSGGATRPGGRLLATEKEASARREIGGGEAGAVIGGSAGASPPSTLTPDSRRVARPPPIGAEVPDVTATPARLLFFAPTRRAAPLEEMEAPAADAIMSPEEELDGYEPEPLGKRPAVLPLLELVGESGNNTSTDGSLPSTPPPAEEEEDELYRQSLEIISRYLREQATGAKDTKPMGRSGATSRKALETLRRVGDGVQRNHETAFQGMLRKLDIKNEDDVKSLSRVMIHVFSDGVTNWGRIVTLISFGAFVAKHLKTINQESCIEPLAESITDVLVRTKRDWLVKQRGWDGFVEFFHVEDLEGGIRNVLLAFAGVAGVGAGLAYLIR

[14] = test system: Streptococcus; assay: Group A Streptococcus viability loss, dose response, counter-screen for streptokinase expression inhibitor project, luminescence, BacTiterGlo (AID 1915); format: functional, organism-based;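 also: potency for reduction of bacterial viability or growth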
[15] = target: T4, Zinc finger protein mex-5 (Caenorhabditis elegans, UniProt Q9XUB2); assay: MEX-5/TCR-2 RNA interaction inhibitors, dose response, biochemical, C. elegans, fluorescence polarization (AID 1960)
T4 sequence (Q9XUB2 whole entry): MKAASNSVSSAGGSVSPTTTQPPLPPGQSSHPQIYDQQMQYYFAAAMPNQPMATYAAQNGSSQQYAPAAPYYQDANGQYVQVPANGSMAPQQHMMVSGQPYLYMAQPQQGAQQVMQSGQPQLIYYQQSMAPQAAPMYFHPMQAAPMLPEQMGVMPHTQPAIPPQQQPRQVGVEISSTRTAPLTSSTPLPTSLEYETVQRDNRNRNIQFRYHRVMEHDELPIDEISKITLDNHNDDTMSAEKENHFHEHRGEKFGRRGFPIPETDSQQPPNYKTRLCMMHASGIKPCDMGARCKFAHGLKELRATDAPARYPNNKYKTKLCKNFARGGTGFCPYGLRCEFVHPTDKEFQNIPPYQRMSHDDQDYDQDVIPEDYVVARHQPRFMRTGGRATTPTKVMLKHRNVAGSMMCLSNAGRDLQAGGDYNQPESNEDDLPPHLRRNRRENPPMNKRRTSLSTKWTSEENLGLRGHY

[16] = target: T5, RNA-binding protein pos-1 (Caenorhabditis elegans, UniProt G5EF15); assay: inhibitors of POS-1/mex-3 RNA binding, dose response, biochemical, fluorescence polarization (AID 1964);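 also: purified POS-1 fused to maltose binding protein made in E. coli; potency of compounds blocking POS-1 binding to fluorescent RNA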
T5 sequence (G5EF15 whole entry): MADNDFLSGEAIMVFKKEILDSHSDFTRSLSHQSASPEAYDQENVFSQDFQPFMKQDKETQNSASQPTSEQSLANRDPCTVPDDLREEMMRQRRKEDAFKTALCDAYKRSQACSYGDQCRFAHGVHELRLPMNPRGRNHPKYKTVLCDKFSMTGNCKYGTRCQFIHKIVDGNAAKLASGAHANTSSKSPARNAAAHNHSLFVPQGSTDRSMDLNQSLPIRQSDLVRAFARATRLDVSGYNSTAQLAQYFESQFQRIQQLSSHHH

[17] = test system: Streptococcus sp. 'group A'; assay: growth inhibition of control SK(-) GAS strain, dose response, counter-screen for streptokinase expression inhibitor project, luminescence, kanamycin, BacTiterGlo, confirmation (AID 1900); format: functional, organism-based
[18] = P. falciparum Dd2 growth inhibitors, dose response, SYBR Green, cherry-picked samples (AID 1159567); format: functional, cell-based

CCOc1ccc(NC(=O)c2cc3c(C)nc4ccccc4c3o2)cc1
IC50 [1]: > 80 µM (inactive) | IC50 [2]: > 79 µM (inactive)

O=C1N[C@@H](c2ccccc2)COC(=O)[C@@H](Cc2ccc(F)cc2)C/C=C\C[C@@H]1CC(=O)N(CCO)Cc1ccccc1
IC50 [3]: > 49.7 µM (inactive) | IC50 [4]: > 66.2 µM (inactive) | IC50 [5]: 13.8 µM (inactive) | IC50 [6]: 12 µM (inactive)

O=C(COc1ccccc1Cl)c1ccc[nH]1
IC50 [7]: 50 µM (inactive) | IC50 [8]: > 100 µM (active)

COc1ccc(-c2cnc3c(c2)C(=O)N([C@H](C)CO)C[C@H](C)[C@@H](CN(C)C(=O)C2CCC2)O3)cc1
AC50 [9]: 25.8 µM (active)

Oc1c(CN2CCCC2)cc(COCc2ccccc2)c2cccnc12
AC50 [10]: 6.15 µM (active) | AC50 [11]: 32.7 µM (active) | IC50 [12]: 3.78 µM (active)

Cc1ccccc1/C(O)=C(\C#N)N=Nc1c(C)n(C)n(-c2ccccc2)c1=O
IC50 [12]: 10.9 µM (active)

CC1CC1C(=O)OCC(=O)Nc1ccc2[nH]c(O)nc2c1 (stereo not given)
IC50 [13]: 5.94 µM (active)

Cc1ncc(CO)c(/C=N/NC(=O)c2cc(Br)ccc2O)c1O
EC50 [14]: 1.06 µM (active) | IC50 [12]: 11.3 µM (active) | EC50 [15]: 5.72 µM (active) | EC50 [16]: > 300 µM (not active) | EC50 [17]: 1.39 µM (active)

CC(C)(C)[S@+]([O-])N1Cc2cc(C(=O)N[C@@H]3CCN(Cc4ccccc4)C3)nc(-c3cccc(-c4ccncc4)c3)c2[C@@H]1CCO
AC50 [18]: 4.68 µM (active)
